Here are results for four molecules from patent US9023789B2, “Amylin analogs and pharmaceutical compositions thereof” (Novo Nordisk A/S, priority 2012, dated 2015).

Series [1] in a line: ASSAY (III) ThT fibrillation assay for physical stability. The format is physicochemical. In short, it runs like this: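 Physical stability scored by ThT fluorescence (444 nm excitation, 485 nm emission) tracked every 20 min during 37 °C incubation with 960 rpm shaking, ThT at 1 μM final. Values are replicate means with SD at chosen times; HPLC against pramlintide standard gives initial and post-assay soluble concentrations.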

Series [2] is described as follows: ASSAY (IV) determination of solubility. Format: physicochemical. The method in brief:
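Samples of polypeptide, prepared from a water stock at […] and diluted 1:1 into 100 mM buffers spanning pH 3.0 to 8.0, stood 18 hours at room temperature. Polypeptide concentration was then determined by UPLC following centrifugation.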

Series [3] deals with T1, rat amylin receptor (rat calcitonin receptor + rat RAMP 3) (Rattus norvegicus, UniProt P32214+Q9JJ73).
T1 construct: expressed in transfected cells; host or cells: BHK tk'ts 13 (transient, FuGENE 6), membranes
T1 sequence (P32214 25-479 isoform P32214-2 limits assumed): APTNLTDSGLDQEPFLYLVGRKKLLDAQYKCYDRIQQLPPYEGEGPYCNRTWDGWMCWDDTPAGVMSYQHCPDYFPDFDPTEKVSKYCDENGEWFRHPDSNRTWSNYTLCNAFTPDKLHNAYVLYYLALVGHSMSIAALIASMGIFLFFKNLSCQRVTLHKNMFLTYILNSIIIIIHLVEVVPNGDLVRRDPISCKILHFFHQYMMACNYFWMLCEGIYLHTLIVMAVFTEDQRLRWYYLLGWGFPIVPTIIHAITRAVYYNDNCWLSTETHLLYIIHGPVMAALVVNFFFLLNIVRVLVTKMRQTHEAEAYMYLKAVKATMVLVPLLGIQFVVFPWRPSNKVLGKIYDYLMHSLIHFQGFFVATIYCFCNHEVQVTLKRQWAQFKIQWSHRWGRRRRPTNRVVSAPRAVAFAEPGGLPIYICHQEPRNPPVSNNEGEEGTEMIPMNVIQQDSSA
T1 sequence (Q9JJ73 23-147 partner): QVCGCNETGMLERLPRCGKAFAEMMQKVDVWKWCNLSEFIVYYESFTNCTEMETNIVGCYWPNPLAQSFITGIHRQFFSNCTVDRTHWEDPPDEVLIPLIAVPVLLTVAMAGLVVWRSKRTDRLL
Kind of series: ASSAY (VI) binding to the rat amylin receptor. The settings on record: for IC50: binding to rat amylin receptor, read-out: rAmylin-R bind IC50. In short, it runs like this:
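Membranes for this rat amylin receptor binding assay came from BHK tk′ts 13 cells. The cells were transiently transfected with rat calcitonin receptor using the FuGENE® 6 reagent from Roche, as the manufacturer recommends. The cells were collected approximately 48 hours after transfection, and membranes were then prepared.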

[4] abbreviates: bistrispropane buffer, pH 6.5, read-out: Solubility pH 6.5 Concentration.
[5] abbreviates: bistrispropane buffer, pH 7.5, read-out: Solubility pH 7.5 Concentration.
Setting [6] is: bistrispropane buffer, pH 6.0, read-out: Solubility pH 6.0 Concentration.
Where [7] appears, read: bistrispropane buffer, pH 7.0, read-out: Solubility pH 7.0 Concentration.
The mark [8] stands for this setting: bistrispropane buffer, pH 8.0, read-out: Solubility pH 8.0 Concentration.
Where [9] appears, read: glycylglycine buffer, pH 3.0, read-out: Solubility pH 3.0 Concentration.
Where [10] appears, read: glycylglycine buffer, pH 4.0, read-out: Solubility pH 4.0 Concentration.
The mark [11] stands for this setting: glycylglycine buffer, pH 5.0, read-out: Solubility pH 5.0 Concentration.
Where [12] appears, read: Table 7, rat binding selectivity, rCTR IC50 / rAmylin-R IC50.
Where [13] appears, read: Table 7a (preferred compounds), rat binding selectivity, rCTR IC50 / rAmylin-R IC50.
The mark [14] stands for this setting: ratio of rCTR bind IC50 to rAmylin-R bind IC50.

Molecules are shown by their SMILES. Converted amounts (≈) assume the structure as drawn. Read-outs that look alike come from different tables or passages of the source. Numbered stars: 1 amine (or outer) side, 2 acyl side, 3 side chain; on linkers, the order of the positions; unused ones are H or OH. Bridge positions count the residues as written; N and C are the ends. Side chains are listed from the residue outwards. Peptide text beside a SMILES is read from it. * marks the point of attachment. C20 diacid = O=C(O)CCCCCCCCCCCCCCCCCCC(=O)*; γGlu = O=C(O)[C@H](CCC(=O)[*:2])N[*:1]

Turning to `CC[C@H](C)[C@H](NC(=O)[C@H](C)NC(=O)CNC(=O)[C@H](Cc1ccccc1)NC(=O)[C@H](CC(N)=O)NC(=O)[C@@H]1CCCN1C(=O)[C@H](CO)NC(=O)[C@H](CO)NC(=O)[C@H](Cc1c[nH]cn1)NC(=O)[C@H](CCCNC(=N)N)NC(=O)[C@H](CC(C)C)NC(=O)[C@H](Cc1ccccc1)NC(=O)[C@H](CCC(=O)O)NC(=O)[C@H](C)NC(=O)[C@H](CC(C)C)NC(=O)[C@H](CCCNC(=N)N)NC(=O)[C@H](CCC(N)=O)NC(=O)[C@@H](NC(=O)[C@H](C)NC(=O)[C@@H]1CSSC[C@H](NC(=O)[C@@H](N)CCCCNC(=O)CC[C@H](NC(=O)CCCCCCCCCCCCCCCCCCC(=O)O)C(=O)O)C(=O)N[C@@H](CC(N)=O)C(=O)N[C@@H]([C@@H](C)O)C(=O)N[C@@H](C)C(=O)N[C@@H]([C@@H](C)O)C(=O)N1)[C@@H](C)O)C(=O)N1CCC[C@H]1C(=O)N[C@@H](CO)C(=O)N[C@@H](CO)C(=O)N[C@H](C(=O)N[C@@H](CC(N)=O)C(=O)N[C@H](C(=O)NCC(=O)N[C@@H](Cc1c[nH]cn1)C(=O)N[C@@H](CCC(=O)O)C(=O)N[C@H](C(=O)N[C@@H](Cc1ccc(O)cc1)C(N)=O)[C@@H](C)O)C(C)C)[C@@H](C)O` [Example 107] (H-K([γGlu-C20 diacid])CNTATCATQRLAEFLRHSSPNFGAIPSSTNVGHETY-NH2; disulfide 2-7 (inferred)), the “ThT pH 4.0 lag time (h)” value in series [1] was found to be 45 h. Besides, the solubility at 18 h in series [2] (setting [4]), in series [2] (setting [5]), in series [2] (setting [6]), in series [2] (setting [7]), in series [2] (setting [8]) and in series [2] (setting [9]) was ≥ 200 µM throughout. Besides, the solubility at 18 h in series [2] (setting [10]) and in series [2] (setting [11]) was ≥ 200 µM in each case. In addition, in series [3] (Table 7), the IC50 (commonly the point on the concentration scale where inhibition reaches its midpoint) worked out at 0.958 nM. Also, the “Ratio rCT/rAmylin binding” value in series [3] (setting [12]), in series [3] (setting [13]) and in series [3] (setting [14]) was 34.6 in each case.

As for `CC[C@H](C)[C@H](NC(=O)[C@H](C)NC(=O)CNC(=O)[C@H](Cc1ccccc1)NC(=O)[C@H](CC(N)=O)NC(=O)[C@@H]1CCCN1C(=O)[C@H](CO)NC(=O)[C@H](CO)NC(=O)[C@H](Cc1c[nH]cn1)NC(=O)[C@H](CCCNC(=N)N)NC(=O)[C@H](CC(C)C)NC(=O)[C@H](Cc1ccccc1)NC(=O)[C@H](CCC(=O)O)NC(=O)[C@H](C)NC(=O)[C@H](CC(C)C)NC(=O)[C@H](CCCNC(=N)N)NC(=O)[C@H](CCC(N)=O)NC(=O)[C@@H](NC(=O)[C@H](C)NC(=O)[C@@H]1CSSC[C@H](NC(=O)[C@@H](N)CCCCNC(=O)CC[C@H](NC(=O)CCCCCCCCCCCCCCCCCCC(=O)O)C(=O)O)C(=O)N[C@@H](CC(N)=O)C(=O)N[C@@H]([C@@H](C)O)C(=O)N[C@@H](C)C(=O)N[C@@H]([C@@H](C)O)C(=O)N1)[C@@H](C)O)C(=O)N1CCC[C@H]1C(=O)N[C@@H](CO)C(=O)N[C@@H](CO)C(=O)N[C@H](C(=O)N[C@@H](CC(N)=O)C(=O)N[C@H](C(=O)NCC(=O)N[C@@H](CCCNC(=N)N)C(=O)N[C@@H](CCC(=O)O)C(=O)N[C@H](C(=O)N[C@@H](Cc1ccc(O)cc1)C(N)=O)[C@@H](C)O)C(C)C)[C@@H](C)O` [Example 108] (H-K([γGlu-C20 diacid])CNTATCATQRLAEFLRHSSPNFGAIPSSTNVGRETY-NH2; disulfide 2-7; N-terminus assumed), the “ThT pH 4.0 lag time (h)” value in series [1] amounted to 45 h. In addition, the solubility at 18 h in series [2] (setting [4]), in series [2] (setting [5]), in series [2] (setting [6]), in series [2] (setting [7]), in series [2] (setting [8]) and in series [2] (setting [9]) was ≥ 200 µM throughout. Also, the solubility at 18 h in series [2] (setting [10]) and in series [2] (setting [11]) was ≥ 200 µM in each case. Further, the concentration for half-maximal inhibition (IC50) in series [3] (Table 7) was found to be 1.06 nM. In addition, the “Ratio rCT/rAmylin binding” value in series [3] (setting [12]), in series [3] (setting [13]) and in series [3] (setting [14]) was 81.1 in each case.

`CC[C@H](C)[C@H](NC(=O)[C@H](C)NC(=O)CNC(=O)[C@H](Cc1ccccc1)NC(=O)[C@H](CC(N)=O)NC(=O)[C@@H]1CCCN1C(=O)[C@H](CO)NC(=O)[C@H](CO)NC(=O)[C@H](Cc1c[nH]cn1)NC(=O)[C@H](CCCNC(=N)N)NC(=O)[C@H](CC(C)C)NC(=O)[C@H](Cc1ccccc1)NC(=O)[C@H](CCC(=O)O)NC(=O)[C@H](C)NC(=O)[C@H](CC(C)C)NC(=O)[C@H](CCCNC(=N)N)NC(=O)[C@H](CCC(N)=O)NC(=O)[C@@H](NC(=O)[C@H](C)NC(=O)[C@@H]1CSSC[C@H](NC(=O)[C@@H](N)CCCCNC(=O)CC[C@H](NC(=O)CCCCCCCCCCCCCCCCCCC(=O)O)C(=O)O)C(=O)N[C@@H](CC(N)=O)C(=O)N[C@@H]([C@@H](C)O)C(=O)N[C@@H](C)C(=O)N[C@@H]([C@@H](C)O)C(=O)N1)[C@@H](C)O)C(=O)N1CCC[C@H]1C(=O)N[C@@H](CO)C(=O)N[C@@H](CO)C(=O)N[C@H](C(=O)N[C@@H](CC(N)=O)C(=O)N[C@H](C(=O)NCC(=O)N1CCC[C@H]1C(=O)N[C@@H](CCC(=O)O)C(=O)N[C@H](C(=O)N[C@@H](Cc1ccc(O)cc1)C(N)=O)[C@@H](C)O)C(C)C)[C@@H](C)O` [Example 109] (H-K([γGlu-C20 diacid])CNTATCATQRLAEFLRHSSPNFGAIPSSTNVGPETY-NH2; disulfide 2-7 (inferred); N-terminus assumed): the “ThT pH 4.0 lag time (h)” value in series [1] is given as 35 h. For the same molecule, the solubility at 18 h in series [2] (setting [4]), in series [2] (setting [5]), in series [2] (setting [6]), in series [2] (setting [7]), in series [2] (setting [8]) and in series [2] (setting [9]) was ≥ 200 µM in each case. Moreover, the solubility at 18 h in series [2] (setting [10]) and in series [2] (setting [11]) was ≥ 200 µM in each case. In series [3] (Table 7), the IC50 stood at 0.164 nM. For the same molecule, the “Ratio rCT/rAmylin binding” value in series [3] (setting [12]), in series [3] (setting [13]) and in series [3] (setting [14]) was 63.2 in each case.

`CC[C@H](C)[C@H](NC(=O)[C@H](C)NC(=O)CNC(=O)[C@H](Cc1ccccc1)NC(=O)[C@H](CC(N)=O)NC(=O)[C@@H]1CCCN1C(=O)[C@H](CO)NC(=O)[C@H](CO)NC(=O)[C@H](Cc1c[nH]cn1)NC(=O)[C@H](CCCNC(=N)N)NC(=O)[C@H](CC(C)C)NC(=O)[C@H](Cc1ccccc1)NC(=O)[C@H](CCC(=O)O)NC(=O)[C@H](C)NC(=O)[C@H](CC(C)C)NC(=O)[C@H](CCCNC(=N)N)NC(=O)[C@H](CCC(N)=O)NC(=O)[C@@H](NC(=O)[C@H](C)NC(=O)[C@@H]1CSSC[C@H](NC(=O)[C@@H](N)CCCCNC(=O)CC[C@H](NC(=O)CC[C@H](NC(=O)CCCCCCCCCCCCCCCCCCC(=O)O)C(=O)O)C(=O)O)C(=O)N[C@@H](CC(N)=O)C(=O)N[C@@H]([C@@H](C)O)C(=O)N[C@@H](C)C(=O)N[C@@H]([C@@H](C)O)C(=O)N1)[C@@H](C)O)C(=O)N1CCC[C@H]1C(=O)N[C@@H](CO)C(=O)N[C@@H](CO)C(=O)N[C@H](C(=O)N[C@@H](CC(N)=O)C(=O)N[C@H](C(=O)NCC(=O)N1CCC[C@H]1C(=O)N[C@@H](CCCNC(=N)N)C(=O)N[C@H](C(=O)N[C@@H](Cc1ccc(O)cc1)C(N)=O)[C@@H](C)O)C(C)C)[C@@H](C)O` [Example 110] (H-K([γGlu-γGlu-C20 diacid])CNTATCATQRLAEFLRHSSPNFGAIPSSTNVGPRTY-NH2; disulfide 2-7): the “ThT pH 4.0 lag time (h)” value in series [1] was found to be 17 h. Further, the solubility at 18 h in series [2] (setting [4]) was ≥ 200 µM; in series [2] (setting [5]), 184 µM (≈ 842 µg/mL); in series [2] (setting [6]) it was ≥ 200 µM; in series [2] (setting [7]) it was ≥ 200 µM; in series [2] (setting [8]) it was 166 µM (≈ 760 µg/mL); in series [2] (setting [9]), ≥ 200 µM. Moreover, the solubility at 18 h in series [2] (setting [10]) and in series [2] (setting [11]) was ≥ 200 µM each time. In series [3] (Table 7), the IC50 amounted to 0.339 nM. Also, the “Ratio rCT/rAmylin binding” value in series [3] (setting [12]), in series [3] (setting [13]) and in series [3] (setting [14]) was 112.9 in each case.
